This note sets out measurements from ChEMBL document CHEMBL4630901 (2021).

In experiment [1] the target is Sigma non-opioid intracellular receptor 1 (Homo sapiens) (UniProt Q99720). As to conditions: Compound concentration 10.0 uM; call rule not given here.
The target of experiment [2] is D(1B) dopamine receptor (Homo sapiens) (UniProt P21918). As to conditions: Compound concentration 10.0 uM.
Experiment [3] concerns the target 5-hydroxytryptamine receptor 1E (Homo sapiens) (UniProt P28566). As to conditions: Compound concentration 10.0 uM.
Experiment [4] deals with Sodium-dependent dopamine transporter (Homo sapiens) (UniProt Q01959). As to conditions: Compound concentration 10.0 uM.
Experiment [5] has as its target T1, Prostaglandin F2-alpha receptor (Homo sapiens, UniProt P43088). Kind of experiment: Bayer inhouse assay (human).
The target in experiment [6] is Sodium-dependent serotonin transporter (Homo sapiens) (UniProt P31645). As to conditions: Compound concentration 10.0 uM.
In experiment [7] the target is T2, Prostaglandin E2 receptor EP1 subtype (Homo sapiens) (UniProt P34995).
T2 sequence (whole entry): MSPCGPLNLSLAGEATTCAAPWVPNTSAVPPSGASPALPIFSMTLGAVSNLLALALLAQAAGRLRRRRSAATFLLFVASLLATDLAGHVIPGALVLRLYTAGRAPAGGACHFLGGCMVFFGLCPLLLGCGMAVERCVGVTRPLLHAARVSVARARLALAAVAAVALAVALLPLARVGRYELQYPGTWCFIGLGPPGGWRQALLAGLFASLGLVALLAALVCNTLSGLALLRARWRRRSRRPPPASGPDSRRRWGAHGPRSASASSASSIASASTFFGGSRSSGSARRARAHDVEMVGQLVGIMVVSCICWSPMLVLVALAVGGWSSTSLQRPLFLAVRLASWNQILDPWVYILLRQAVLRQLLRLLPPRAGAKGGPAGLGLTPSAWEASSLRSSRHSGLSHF
Kind of experiment: Prostanoid EP1 Eurofins-Panlabs radioligand binding assay. Set-up: ligand concentration 1 nM.

For experiment [8], the target named is Motilin receptor (Homo sapiens) (UniProt O43193). The following applies: Compound concentration 10.0 uM.
Sequence of Motilin receptor (Homo sapiens) (O43193 whole entry): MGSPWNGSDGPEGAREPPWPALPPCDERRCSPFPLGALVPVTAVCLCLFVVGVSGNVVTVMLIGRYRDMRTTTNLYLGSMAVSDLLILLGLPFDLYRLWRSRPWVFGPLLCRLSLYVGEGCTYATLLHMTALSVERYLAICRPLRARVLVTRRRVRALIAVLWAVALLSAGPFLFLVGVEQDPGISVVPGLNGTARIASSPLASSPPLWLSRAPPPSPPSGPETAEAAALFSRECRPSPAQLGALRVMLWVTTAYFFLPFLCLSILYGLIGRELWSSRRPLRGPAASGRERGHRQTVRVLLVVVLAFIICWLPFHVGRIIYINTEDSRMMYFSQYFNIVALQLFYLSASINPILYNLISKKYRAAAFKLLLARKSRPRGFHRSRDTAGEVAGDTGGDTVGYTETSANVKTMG
Experiment [9] deals with T1, Prostaglandin F2-alpha receptor. The experiment can be described thus: Prostanoid FP Eurofins-Panlabs radioligand binding assay. Set-up: ligand concentration 1 nM.
The target in experiment [10] is Muscarinic acetylcholine receptor M3 (Homo sapiens) (UniProt P20309). The following applies: Compound concentration 10.0 uM.
Experiment [11] addresses T3, Alpha-1A adrenergic receptor (Homo sapiens) (UniProt P35348).
T3 sequence (whole entry): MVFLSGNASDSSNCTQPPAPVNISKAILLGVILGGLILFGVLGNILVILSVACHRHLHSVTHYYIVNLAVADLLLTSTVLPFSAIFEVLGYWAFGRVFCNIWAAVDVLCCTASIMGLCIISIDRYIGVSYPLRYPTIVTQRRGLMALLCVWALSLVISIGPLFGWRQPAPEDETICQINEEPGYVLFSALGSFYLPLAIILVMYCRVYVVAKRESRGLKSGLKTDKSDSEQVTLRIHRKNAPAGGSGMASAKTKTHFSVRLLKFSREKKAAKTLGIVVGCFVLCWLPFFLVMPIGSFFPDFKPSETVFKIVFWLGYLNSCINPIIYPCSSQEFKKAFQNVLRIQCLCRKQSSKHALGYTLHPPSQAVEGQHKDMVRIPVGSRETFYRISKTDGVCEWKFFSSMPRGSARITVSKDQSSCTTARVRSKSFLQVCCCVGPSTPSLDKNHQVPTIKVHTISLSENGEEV
The following applies: Rattus norvegicus; Compound concentration 10.0 uM.

Experiment [12] addresses Glutamate NMDA receptor (Rattus norvegicus) (UniProt P35439+Q00959+Q00960+Q00961+Q62645+Q8VHN2+Q9R1M7). The following applies: Compound concentration 10.0 uM.
Experiment [13] concerns the target Histamine H1 receptor (Homo sapiens) (UniProt P35367). As to conditions: Compound concentration 10.0 uM.
The target in experiment [14] is Kappa-type opioid receptor (Homo sapiens) (UniProt P41145). The following applies: Compound concentration 10.0 uM.
Sequence of Kappa-type opioid receptor (Homo sapiens) (P41145 whole entry): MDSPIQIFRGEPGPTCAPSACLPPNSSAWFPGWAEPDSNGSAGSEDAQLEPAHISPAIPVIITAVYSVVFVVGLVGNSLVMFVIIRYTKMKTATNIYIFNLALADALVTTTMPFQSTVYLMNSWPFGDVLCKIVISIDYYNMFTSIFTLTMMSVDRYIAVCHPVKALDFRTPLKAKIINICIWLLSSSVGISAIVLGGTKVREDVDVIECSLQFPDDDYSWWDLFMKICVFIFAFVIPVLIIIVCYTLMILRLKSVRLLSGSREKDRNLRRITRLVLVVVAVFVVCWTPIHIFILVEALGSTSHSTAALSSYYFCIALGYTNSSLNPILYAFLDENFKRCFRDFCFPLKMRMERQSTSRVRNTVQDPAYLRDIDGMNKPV
Experiment [15] deals with Progesterone receptor (Homo sapiens) (UniProt P06401). The following applies: Compound concentration 10.0 uM.
Sequence of Progesterone receptor (Homo sapiens) (P06401 whole entry): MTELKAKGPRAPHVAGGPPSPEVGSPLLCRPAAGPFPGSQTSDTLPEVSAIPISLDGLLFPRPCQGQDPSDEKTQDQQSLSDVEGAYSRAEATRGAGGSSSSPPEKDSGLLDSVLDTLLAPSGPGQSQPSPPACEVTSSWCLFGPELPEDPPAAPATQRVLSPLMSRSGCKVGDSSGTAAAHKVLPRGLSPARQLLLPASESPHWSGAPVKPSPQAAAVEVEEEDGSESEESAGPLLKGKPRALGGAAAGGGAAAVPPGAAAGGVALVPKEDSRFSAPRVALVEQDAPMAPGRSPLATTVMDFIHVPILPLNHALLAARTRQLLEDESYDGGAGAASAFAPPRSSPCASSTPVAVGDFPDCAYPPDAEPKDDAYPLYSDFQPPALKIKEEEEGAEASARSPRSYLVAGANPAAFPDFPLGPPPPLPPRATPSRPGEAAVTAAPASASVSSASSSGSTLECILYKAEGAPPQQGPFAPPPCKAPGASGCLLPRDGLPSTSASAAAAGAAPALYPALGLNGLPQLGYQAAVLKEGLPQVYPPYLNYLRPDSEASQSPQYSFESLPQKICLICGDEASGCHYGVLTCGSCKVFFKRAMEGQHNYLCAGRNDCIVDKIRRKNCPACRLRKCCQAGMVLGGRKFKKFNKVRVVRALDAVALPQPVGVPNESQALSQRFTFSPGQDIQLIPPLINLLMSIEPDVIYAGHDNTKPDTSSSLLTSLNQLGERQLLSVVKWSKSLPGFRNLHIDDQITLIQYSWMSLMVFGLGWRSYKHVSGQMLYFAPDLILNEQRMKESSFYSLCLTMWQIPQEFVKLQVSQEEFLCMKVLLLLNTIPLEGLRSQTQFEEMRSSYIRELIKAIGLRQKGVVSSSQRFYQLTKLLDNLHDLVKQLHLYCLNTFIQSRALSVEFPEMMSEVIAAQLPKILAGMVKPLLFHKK
Experiment [16] concerns the target Adenosine receptor A2a (Homo sapiens) (UniProt P29274). The following applies: Compound concentration 10.0 uM.
For experiment [17], the target named is Histamine H4 receptor (Homo sapiens) (UniProt Q9H3N8). As to conditions: Compound concentration 10.0 uM.
Sequence of Histamine H4 receptor (Homo sapiens) (Q9H3N8 whole entry): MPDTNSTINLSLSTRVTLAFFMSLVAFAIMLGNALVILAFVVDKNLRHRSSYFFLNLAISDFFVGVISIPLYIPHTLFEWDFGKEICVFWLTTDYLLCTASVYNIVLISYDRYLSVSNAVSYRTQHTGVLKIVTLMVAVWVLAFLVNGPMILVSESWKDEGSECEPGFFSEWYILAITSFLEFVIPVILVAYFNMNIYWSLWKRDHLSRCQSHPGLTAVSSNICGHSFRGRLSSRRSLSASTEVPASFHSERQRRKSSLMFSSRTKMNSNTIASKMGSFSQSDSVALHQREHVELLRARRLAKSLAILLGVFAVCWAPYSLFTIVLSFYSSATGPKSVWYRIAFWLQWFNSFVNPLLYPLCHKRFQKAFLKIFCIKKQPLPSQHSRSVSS
Experiment [18] has as its target T4, 5-hydroxytryptamine receptor 1A (Homo sapiens) (UniProt P08908).
T4 sequence (whole entry): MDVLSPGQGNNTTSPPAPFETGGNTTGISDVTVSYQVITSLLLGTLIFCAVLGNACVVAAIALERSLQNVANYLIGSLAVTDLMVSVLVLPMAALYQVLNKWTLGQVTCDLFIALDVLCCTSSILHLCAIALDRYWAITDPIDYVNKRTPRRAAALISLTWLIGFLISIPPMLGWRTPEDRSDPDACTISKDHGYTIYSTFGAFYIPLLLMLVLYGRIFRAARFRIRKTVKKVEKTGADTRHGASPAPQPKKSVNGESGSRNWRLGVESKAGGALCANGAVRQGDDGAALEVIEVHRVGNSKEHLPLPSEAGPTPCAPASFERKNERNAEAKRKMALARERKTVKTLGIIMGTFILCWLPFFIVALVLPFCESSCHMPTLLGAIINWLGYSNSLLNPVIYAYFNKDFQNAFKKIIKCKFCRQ
As to conditions: Compound concentration 10.0 uM.

Experiment [19] deals with B1 bradykinin receptor (Homo sapiens) (UniProt P46663). Kind of experiment: Inhibition of Bradykinin B1 at 10 µM in the Eurofins-Panlabs radioligand binding assay (Eurofins_assay_212510). As to conditions: Compound concentration 10.0 uM.
The target of experiment [20] is D(3) dopamine receptor (Homo sapiens) (UniProt P35462). The following applies: Compound concentration 10.0 uM.
Sequence of D(3) dopamine receptor (Homo sapiens) (P35462 whole entry): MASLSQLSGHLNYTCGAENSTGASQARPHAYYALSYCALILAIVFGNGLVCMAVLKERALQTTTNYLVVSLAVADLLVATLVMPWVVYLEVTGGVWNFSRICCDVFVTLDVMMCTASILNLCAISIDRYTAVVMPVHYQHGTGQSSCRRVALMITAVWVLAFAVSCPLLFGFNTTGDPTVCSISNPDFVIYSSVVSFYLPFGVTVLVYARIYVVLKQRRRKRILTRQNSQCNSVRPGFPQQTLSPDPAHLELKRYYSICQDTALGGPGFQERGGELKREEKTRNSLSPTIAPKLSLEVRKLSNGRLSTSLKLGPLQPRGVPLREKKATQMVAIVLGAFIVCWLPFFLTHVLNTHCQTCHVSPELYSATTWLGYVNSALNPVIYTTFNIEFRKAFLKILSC
For experiment [21], the target named is Glutamate receptor ionotropic, kainate (Rattus norvegicus) (UniProt P22756+Q01812+P42260+P42264+Q63273). The experiment can be described thus: Inhibition of Glutamate, Kainate at 10 µM in the Eurofins-Panlabs radioligand binding assay (Eurofins_assay_232700). The following applies: Compound concentration 10.0 uM.
Experiment [22] concerns the target Beta-2 adrenergic receptor (Homo sapiens) (UniProt P07550). The following applies: Compound concentration 10.0 uM.
Where [23] appears, read: Compound concentration 0.001 uM.

T1 sequence (P43088 whole entry): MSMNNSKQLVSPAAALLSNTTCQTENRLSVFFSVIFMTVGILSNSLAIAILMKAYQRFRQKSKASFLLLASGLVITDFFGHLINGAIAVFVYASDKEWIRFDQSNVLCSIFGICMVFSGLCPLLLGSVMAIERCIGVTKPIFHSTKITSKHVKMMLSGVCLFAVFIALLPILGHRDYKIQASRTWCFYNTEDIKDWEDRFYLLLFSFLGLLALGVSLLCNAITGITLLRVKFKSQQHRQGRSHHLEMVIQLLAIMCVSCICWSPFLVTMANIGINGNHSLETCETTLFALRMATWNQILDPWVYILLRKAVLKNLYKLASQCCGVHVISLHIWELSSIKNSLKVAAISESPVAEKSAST
Sequence of D(1B) dopamine receptor (Homo sapiens) (P21918 whole entry): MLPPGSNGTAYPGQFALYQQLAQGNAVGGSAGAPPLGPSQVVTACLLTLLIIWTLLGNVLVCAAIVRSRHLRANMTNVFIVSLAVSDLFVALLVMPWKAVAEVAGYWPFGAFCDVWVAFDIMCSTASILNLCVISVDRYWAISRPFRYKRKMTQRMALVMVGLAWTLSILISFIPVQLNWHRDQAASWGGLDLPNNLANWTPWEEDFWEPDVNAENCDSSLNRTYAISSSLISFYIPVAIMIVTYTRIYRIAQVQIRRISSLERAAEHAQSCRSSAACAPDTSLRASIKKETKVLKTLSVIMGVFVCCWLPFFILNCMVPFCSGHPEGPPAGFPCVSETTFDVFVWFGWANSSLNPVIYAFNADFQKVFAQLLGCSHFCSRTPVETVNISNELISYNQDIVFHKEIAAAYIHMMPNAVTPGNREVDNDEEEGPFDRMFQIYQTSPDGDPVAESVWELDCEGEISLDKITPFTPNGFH
Sequence of Beta-2 adrenergic receptor (Homo sapiens) (P07550 whole entry, looked up): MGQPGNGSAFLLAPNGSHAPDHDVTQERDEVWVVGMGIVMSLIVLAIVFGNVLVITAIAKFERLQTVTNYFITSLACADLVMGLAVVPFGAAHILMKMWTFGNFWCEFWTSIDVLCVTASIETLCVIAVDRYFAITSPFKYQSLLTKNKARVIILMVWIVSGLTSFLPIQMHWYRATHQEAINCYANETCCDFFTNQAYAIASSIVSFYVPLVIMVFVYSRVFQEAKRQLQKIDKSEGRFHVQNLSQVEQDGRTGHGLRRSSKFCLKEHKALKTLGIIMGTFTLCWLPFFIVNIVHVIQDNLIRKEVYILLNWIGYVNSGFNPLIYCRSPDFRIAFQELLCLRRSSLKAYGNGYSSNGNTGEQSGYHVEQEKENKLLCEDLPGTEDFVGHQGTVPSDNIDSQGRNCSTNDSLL
Sequence of Histamine H1 receptor (Homo sapiens) (P35367 whole entry): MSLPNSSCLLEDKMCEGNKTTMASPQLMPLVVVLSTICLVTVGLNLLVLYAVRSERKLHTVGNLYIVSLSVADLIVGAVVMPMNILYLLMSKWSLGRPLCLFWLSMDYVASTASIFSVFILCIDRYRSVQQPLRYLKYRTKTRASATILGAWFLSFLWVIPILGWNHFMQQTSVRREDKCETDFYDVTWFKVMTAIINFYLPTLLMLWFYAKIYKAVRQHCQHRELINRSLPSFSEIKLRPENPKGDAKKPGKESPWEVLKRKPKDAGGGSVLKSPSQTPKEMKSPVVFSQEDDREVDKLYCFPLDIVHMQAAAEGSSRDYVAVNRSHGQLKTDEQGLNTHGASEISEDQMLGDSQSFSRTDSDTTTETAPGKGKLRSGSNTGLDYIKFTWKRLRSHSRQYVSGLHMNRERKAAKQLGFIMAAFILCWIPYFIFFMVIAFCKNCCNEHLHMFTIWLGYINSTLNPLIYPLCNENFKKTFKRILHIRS
Sequence of Sigma non-opioid intracellular receptor 1 (Homo sapiens) (Q99720 whole entry): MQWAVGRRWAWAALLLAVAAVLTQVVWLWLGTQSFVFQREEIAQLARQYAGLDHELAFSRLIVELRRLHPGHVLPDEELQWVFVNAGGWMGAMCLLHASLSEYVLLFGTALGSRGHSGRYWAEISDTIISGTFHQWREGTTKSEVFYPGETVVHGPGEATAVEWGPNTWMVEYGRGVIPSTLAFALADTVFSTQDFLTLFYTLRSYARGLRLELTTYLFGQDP
Sequence of 5-hydroxytryptamine receptor 1E (Homo sapiens) (P28566 whole entry): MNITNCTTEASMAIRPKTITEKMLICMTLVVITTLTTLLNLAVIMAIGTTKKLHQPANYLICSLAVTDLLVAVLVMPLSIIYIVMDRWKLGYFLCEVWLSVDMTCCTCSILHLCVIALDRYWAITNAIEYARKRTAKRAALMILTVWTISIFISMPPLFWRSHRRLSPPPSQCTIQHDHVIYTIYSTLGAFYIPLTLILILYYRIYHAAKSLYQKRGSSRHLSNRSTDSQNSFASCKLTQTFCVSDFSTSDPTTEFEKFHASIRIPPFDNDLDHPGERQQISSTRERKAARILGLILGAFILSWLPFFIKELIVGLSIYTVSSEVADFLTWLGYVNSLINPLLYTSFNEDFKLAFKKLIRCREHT

For the compound `Cc1c(N2CCNCC2)nc2ccc(Br)cc2c1C(=O)NC[C@H](CCC(=O)O)c1ccccc1Cl` [BAY-403], the inhibition in experiment [1] was 36.5%; in experiment [2], 5.3%; in [3], 18.3%; in experiment [4], 33.5%. The IC50 in experiment [5] is 1.2 µM (not active).

On to `Cc1c(N2CCCC2)nc2ccc(Br)cc2c1C(=O)NC[C@H](CCC(=O)O)c1ccccc1Cl` [BAY-6672], for which the inhibition is -4% in [6]; 11% in experiment [7] (setting [23]); -2% in [7] (Compound concentration 0.01 uM); 1% in [7] (Compound concentration 0.1 uM); -5% in [7] (Compound concentration 1.0 uM); 22% in experiment [7] (Compound concentration 10.0 uM). For the same compound, the inhibition in experiment [8] was 10%; in experiment [9] (setting [23]), 7%; in [9] (Compound concentration 0.01 uM), 35%; in experiment [9] (Compound concentration 0.1 uM), 79%; in [9] (Compound concentration 1.0 uM), 94%; in experiment [9] (Compound concentration 10.0 uM) it was 97%. Moreover, the inhibition is 8% in experiment [10]; 6% in experiment [11]; 7% in experiment [12]; 15% in experiment [13]; 15% in experiment [14]; 14% in experiment [15]. The inhibition in experiment [16] is 2%; in [2], 25%; in experiment [17], 13.1%; in experiment [18], 3%; in [19] it was 7%; in [20], 10%. Besides, the figures for the inhibition in experiment [21] and in experiment [22] were 11% and 18%, respectively.
